Experimental data: patent US20150246946A1, “PEPTIDES AND METHODS FOR TREATING CANCER” (AGENCY FOR SCIENCE, TECHNOLOGY AND RESEARCH, priority 2012, published 2015)
Where a SMILES comes first, the peptide text is derived from it. Bridges are numbered along the chain shown (N, C = ends). [ ]: non-standard residue; d: D form. R8 = C=CCCCCCC[C@@](C)(N)C(=O)O; S5 = C=CCCC[C@](C)(N)C(=O)O; FAM = carboxyfluorescein

Key:
[1] = test system: p53 null thymocytes; experiment: cell viability in mouse thymocytes, p53 null; format: cell-based, mice; details: high doses, 24 hours, annexin V/PI
[2] = molecular target: T1, Mdm2 (1-125) (Homo sapiens, UniProt Q00987); experiment: competitive fluorescence polarization/anisotropy, apparent Kd against Mdm2; format: binding; details: for preference between Mdm2 and Mdm4 in binding: comparison of apparent Kds
T1 construct: Mdm2 (1-125) and Mdm4 (1-125) were ligated into the GST fusion expression vector pGEX-6P-1; GST (N, cleaved yes); made in house; host or cells: E. coli BL21 DE3
T1 sequence (Q00987 1-125): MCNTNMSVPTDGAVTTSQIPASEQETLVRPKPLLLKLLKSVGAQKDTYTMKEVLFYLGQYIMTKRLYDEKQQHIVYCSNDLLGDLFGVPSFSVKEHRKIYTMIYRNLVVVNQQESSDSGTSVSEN
Experimental: (§1) The cells expressing the GST fusion constructs were grown in LB medium at 37° C. to an OD600 of ˜0.6 and induction was started with 1 mM IPTG and carried out overnight at room temperature. Cells were harvested by centrifugation and the cell pellets were re-suspended in 50 mM Tris pH 8.0, 10% sucrose and were then sonicated. The sonicated sample was centrifuged for 60 mins at 17,000 g at 4° C. […] The column was then further washed by 6 volumes of wash buffer. Mdm2 and Mdm4 were then purified from the column by cleavage with Precission (GE Lifesciences) protease. 10 units of precission protease, in one column volume of PBS with 1 mM DTT buffer, were injected onto the column. The cleavage reaction was allowed to proceed overnight at 4° C. The cleaved protein was then eluted of the column with wash buffer. Protein fractions were analyzed with SDS page gel and concentrated using a Centricon (3.5 kDa MWCO) concentrator, Millipore. Mdm2 and Mdm4 protein samples were then dialyzed into a buffer solution containing 20 mM Bis-Tris, pH 6.5, 0.05M NaCl with 1 mM DTT and loaded onto a monoS column pre-equilibrated in buffer A (20 mM Bis-Tris, pH 6.5, 1 mM DTT). The column was then washed in 6 column volumes of buffer A and bound protein was eluted with a linear gradient of 1M NaCL over 25 column volumes. Protein fractions were analyzed with SDS page gel and concentrated using a Centricon (3.5 kDa MWCO) concentrator from Millipore.
(§2) Apparent Kd values were determined for a variety of molecules via competitive fluorescence anisotropy experiments. […] The competing molecules were then titrated against complex of the FAM labelled peptide and protein. Apparent Kd values were determined by fitting the experimental data to the equations shown below:
(§3) [L]st and [L]t denote labelled ligand and total unlabelled ligand input concentrations, respectively. Kd2 is the dissociation constant of the interaction between the unlabelled ligand and the protein. In all competitive types of experiments, it is assumed that [P]t>[L]st, otherwise considerable amounts of free labelled ligand would always be present and would interfere with measurements. […] The FAM-labelled peptide were dissolved in DMSO at 1 mM and diluted into experimental buffer. Readings were carried out with a Envision Multilabel Reader (PerkinElmer). […] All titrations were carried out in triplicate. Curve-fitting was carried out using Prism 4.0 (GraphPad).

[3] = test system: p53 responsive LacZ reporter gene in T22 cell line; experiment: T22 p53 β-galactosidase based reporter assay; format: cell-based, murine; details: 18 hours, DMEM with 10% FBS
Experimental: T22 cells, which were stably transfected with a p53 responsive […] reporter, were seeded into 96-well plate at a cell density of 8000 cells per well. […] Measurements were carried out using a Safire II multiplate reader (TECAN). Experiments were carried out independently twice.

[4] = molecular target: T2, Mdm4 (1-125) (Homo sapiens, UniProt O15151); experiment: competitive fluorescence polarization/anisotropy, apparent Kd against Mdm4; format: binding
T2 construct: Mdm4 (1-125) were ligated into the GST fusion expression vector pGEX-6P-1; GST (N, cleaved yes); made in house; host or cells: E. coli BL21 DE3
T2 sequence (O15151 1-125): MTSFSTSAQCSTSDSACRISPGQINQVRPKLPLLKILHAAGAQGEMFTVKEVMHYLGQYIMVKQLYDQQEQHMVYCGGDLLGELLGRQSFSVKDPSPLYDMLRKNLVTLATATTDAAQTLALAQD
Experimental: as §1, §2, §3

[5] = test system: HCT-116 p53−/− cells; experiment: cell viability (CellTiter-Glo), HCT-116 p53−/−; format: cell-based; details: 24 hours
From the text: (§4) Data was normalized to vehicle-treated controls.

[6] = test system: HCT-116 p53+/+ cells; experiment: cell viability (CellTiter-Glo), HCT-116 p53+/+; format: cell-based; details: 24 hours
From the text: as §4

[7] = test system: SJSA-1 cell line; experiment: caspase 3/7 activity in SJSA-1 cell line; details: SJSA-1 cells, titration
[8] = test system: HCT116 p53+/+ cells; experiment: cell cycle analysis (propidium iodide flow cytometry); format: cell-based; details: 24 hours
Experimental: Three hundred fifty thousand cells were then seeded per well in 6-well plates containing incubated overnight. […] A 1% DMSO vehicle control treatment was also carried out. Cells were washed with PBS and then detached from the plate surface by trypsinisation. […] Cells were spun down and resuspended with PI-staining solution containing RNase A. Cells were analyzed using an LSR II (Becton Dickinson).

[9] = test system: HCT-116 p53+/+ cells; experiment: Caspase-Glo 3/7 assay, HCT-116 p53+/+; format: cell-based; details: 24 hours
From the text: as §4

[10] = test system: thymocytes from p53 wild-type mice; experiment: cell viability in mouse thymocytes, p53 wild-type; format: cell-based; details: p53 wild-type vs p53 deficient mice, 24 hours, annexin V/PI
Experimental: Thymocytes were isolated from wild-type and p53^+/−mice (age 4-9 weeks) and kept in a PBS/FCS (2%) solution (ref). Cells were plated at a density of 1×10^6 per well in 24-well plates in medium [DMEM/Hepes (25 mM, pH 7.2), 5% FCS, penicillin/streptomycin, glutamine] and incubated at 37° C. with 2% C02. […] Cell were then analysed for viability using this procedure, cells were washed with cold PBS, and stained with FITC-labeled annexin V antibody (PharMingen) and PI (Sigma). The relative amounts of apoptotic cells were determined by binding of annexin V and subsequent fluorescence-activated cell sorter analysis. All values were normalized to the number of cells remaining viable in vehicle (1% DMSO) treated cultures derived from the same animal stained simultaneously. Data are representatives of n=4 independent experiments.

[11] = test system: HCT-116 p53−/− cells; experiment: Caspase-Glo 3/7 assay, HCT-116 p53−/−; format: cell-based; details: 24 hours
From the text: as §4

[12] = molecular target: T3, interaction of p53 with Mdm2 in living BHK cells (Homo sapiens, UniProt Q00987); experiment: F2H co-localization assay p53:Mdm2; format: cell-based; details: 0 to 50 μM
T3 construct: the prey is a fusion of either Mdm2 (7-134) or Mdm4 (1-129) with RFP; host or cells: transgenic BHK cells with lac operator repeats
T3 sequence (Q00987 7-134): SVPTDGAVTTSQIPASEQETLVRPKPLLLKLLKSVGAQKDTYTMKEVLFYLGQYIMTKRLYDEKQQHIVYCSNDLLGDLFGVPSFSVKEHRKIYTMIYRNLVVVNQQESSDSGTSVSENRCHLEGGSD

[13] = test system: HCT-116 p53+/+ cells; experiment: HCT-116 Western blot analysis; format: cell-based; details: 6 hours, with or without fetal calf serum, FIG. 2d
Experimental: Cells were treated with various compounds/vehicle controls at the time points and concentrations indicated also in acoy's media with 10% FBS. Cells were rinsed with PBS and then harvested in 200 μl of 1× NuPAGE LDS sample buffer supplied by Invitrogen (NP0008). Samples were then sonicated, heated to 90° C. for 5 mins, sonicated twice for 10 s and centrifuged at 13, 000 rpm for 5 minutes. Protein concentrations were measured by BCA assay (Pierce). Western blots were then performed using antibodies against actin (AC-15, Sigma) as a loading control, p21 (118 mouse monoclonal), Mdm2 (4B2 mouse monoclonal) and p53 (DO-1 mouse monoclonal).

[14] = molecular target: T4, Mdm2 (1-125) (human, UniProt Q00987 1-125); experiment: competitive fluorescence polarization
T4 construct: range 1-125; also called Hdm2
T4 sequence (Q00987 1-125 limits assumed): as the sequence (Q00987 1-125) above

[15] = molecular target: T5, Mdm4 (1-125) (human, UniProt O15151 1-125); experiment: competitive fluorescence polarization
T5 construct: range 1-125; also called MDMX; Hdm4
T5 sequence (looked up): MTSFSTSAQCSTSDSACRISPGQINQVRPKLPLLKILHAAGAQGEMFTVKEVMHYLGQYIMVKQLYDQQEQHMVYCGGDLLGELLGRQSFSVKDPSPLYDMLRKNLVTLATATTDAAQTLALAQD

[16] = molecular target: T5, Mdm4 (1-125); experiment: apparent Kd, competitive fluorescence polarization; displacement of FAM-…-NH2 from Mdm4 (1-125)
[17] = molecular target: T4, Mdm2 (1-125); experiment: apparent Kd, competitive fluorescence polarization; displacement of FAM-…-NH2 from Mdm2 (1-125)
[18] = molecular target: T5, Mdm4 (1-125); experiment: direct fluorescence anisotropy titration of Mdm4 (1-125) against 50 nM labelled peptide, 1:1 model

## COc1ccc(C2=N[C@@H](c3ccc(Cl)cc3)[C@@H](c3ccc(Cl)cc3)N2C(=O)N2CCNC(=O)C2)c(OC(C)C)c1 [nutlin, reference compound]
[1]
  apoptosis in p53 null thymocytes: caused apoptosis in p53 null thymocytes

## CC(=O)N[C@H](C(=O)N[C@@H](CO)C(=O)N[C@@H](Cc1ccccc1)C(=O)N[C@]1(C)CCCCCCC=CCCC[C@@](C)(C(N)=O)NC(=O)[C@H](CC(C)C)NC(=O)[C@H](CC(C)C)NC(=O)[C@H](CC(N)=O)NC(=O)[C@H](Cc2c[nH]c3ccccc23)NC(=O)[C@H](Cc2ccc(O)cc2)NC(=O)[C@H](CCC(=O)O)NC1=O)[C@@H](C)O [sMTide-01, Ac-^1TSFXEYWNLLX^11-NH2] (Ac-TSF[R8]EYWNLL[S5]-NH2; staple 4-11)
[2]; stapled vs unstapled peptide
  increase in Kd against Mdm2 in comparison to unstapled counterpart: approximately 2 fold
[3]
  p53 transcriptional activity in T22 p53 reporter assay: little activity
[4]; stapled vs unstapled peptide
  increase in Kd against Mdm4 in comparison to unstapled counterpart: 4 fold

## CC(=O)N[C@H](C(=O)N[C@@H](CO)C(=O)N[C@@H](Cc1ccccc1)C(=O)N[C@]1(C)CCCCCCC=CCCC[C@@](C)(C(N)=O)NC(=O)[C@H](CC(C)C)NC(=O)[C@H](CC(C)C)NC(=O)[C@H](C)NC(=O)[C@H](Cc2c[nH]c3cc(Cl)ccc23)NC(=O)[C@H](Cc2ccc(O)cc2)NC(=O)[C@H](CCC(=O)O)NC1=O)[C@@H](C)O [sMTide-02A, Ac-^1TSFXEY(L-6-Cl)WALLX^11-NH2]
[1]
  apoptosis in p53 null thymocytes: to a certain extent
[5]
  cell viability: no significant decrease in the viability
[6]
  cell viability: no significant decrease in the viability
[7]
  induction of caspase 3/7 activity: induced caspase 3/7 activity at substantially higher concentrations than nutlin
[8]; high concentration (FIG. 5)
  cell cycle distribution at high concentrations: G2 arrest
[8]; low concentration (FIG. 4c)
  cell cycle distribution at low concentrations: G2 arrest
[9]
  caspase 3/7 activity: negligible caspase 3/7 activity
[2]
  preference between Mdm2 and Mdm4 in binding: preference for Mdm2 over Mdm4
[10]
  cell death in thymocytes: induced cell death in a p53-dependent manner
[11]
  caspase 3/7 activity: negligible caspase 3/7 activity
[3]
  p53 transcriptional activity in T22 p53 reporter assay: much higher fold induction of p53 transcriptional activity than the unmodified sMTide-02
[12]
  disruption of p53 interaction with Mdm2 (F2H): dissociate Mdm2 from p53
[4]; apparent Kd, competitive fluorescence polarization, Mdm4 75 nM, FAM peptide 50 nM
  Mdm4 Kd: significantly attenuated
[13]
  effect of serum on activity: significantly improved potency in the absence of serum

## CC(=O)N[C@@H](CO)C(=O)N[C@@H](Cc1ccccc1)C(=O)N[C@]1(C)CCCCCCC=CCCC[C@@](C)(C(N)=O)NC(=O)[C@H](CC(C)C)NC(=O)[C@H](CC(C)C)NC(=O)[C@H](C)NC(=O)[C@H](Cc2c[nH]c3ccccc23)NC(=O)[C@H](Cc2ccc(O)cc2)NC(=O)[C@H](CCC(=O)O)NC1=O [sMTide-04, Ac-^2SFXEYWALLX^11-NH2] (Ac-SF[R8]EYWALL[S5]-NH2; staple 3-10)
[2]
  preference between Mdm2 and Mdm4 in binding: interacted more tightly with Mdm4 than with Mdm2

B1: sMTide-01 (peptide)
peptide: Ac-TSF[R8]EYWNLL[S5]-NH2
modifications: staple 4-11
SMILES: CC(=O)N[C@H](C(=O)N[C@@H](CO)C(=O)N[C@@H](Cc1ccccc1)C(=O)N[C@]1(C)CCCCCCC=CCCC[C@@](C)(C(N)=O)NC(=O)[C@H](CC(C)C)NC(=O)[C@H](CC(C)C)NC(=O)[C@H](CC(N)=O)NC(=O)[C@H](Cc2c[nH]c3ccccc23)NC(=O)[C@H](Cc2ccc(O)cc2)NC(=O)[C@H](CCC(=O)O)NC1=O)[C@@H](C)O
notes: Stapled derivative of MTide-01; also called Ac-TSFXEYWNLLX-NH2
[14]
  fold increase in Kd against its unstapled counterpart (MTide-01): ~2 fold
[15]
  fold increase in Kd against its unstapled counterpart (MTide-01): ~4 fold
[16]
  Kd: 118 nM
[17]
  Kd: 87 nM

## Ac-TSFAEYWNLLS-NH2 (Linear phage-derived peptide) [MTide-01]
[16]
  Kd: 33.2 nM
[17]
  Kd: 46.3 nM

B2: carboxyfluorescein (FAM) labelled 12-1 peptide (FAM-RFMDYWEGL-NH2) (peptide)
peptide: {FAM}-RFMDYWEGL-NH2
notes: Labelled probe of the fluorescence anisotropy assays; also called FAM labeled probe
[18]
  Kd: 4.2 nM
